# Data reported in US8227506B2, “Benzamidine compound” (Ajinomoto., Inc., priority 2005, dated 2012).
# pIC50: −log10 of the molar value.
# Key:
# [1] = biological target: activated factor IIa (thrombin) (Homo sapiens, UniProt P00734); test: Determination of activated factor II (FIIa, thrombin)-inhibitory activity (chromogenic substrate S-2238); format: biochemical; settings: negative logarithm of the concentration suppressing 50% of the reaction rate of the control, 0.125 U/ml thrombin
# Method: Determination of Activated Factor II (FIIa, Thrombin)-Inhibitory Activity
# (§1) Using a 96 well plate (#3396, Costar), 0.125 U/ml activated factor IIa (thrombin) (10 μL) and a test compound (10 μL) were blended with 100 mM Tris-HCl buffer (130 μL) containing 0.02% Tween 20, 0.1% PEG6000 and 0.2 M NaCl for 10 minutes, and a substrate for color development (0.1 mM S-2238 50 μL) was added thereto. Using a Microplate reader Benchmark Plus (BIO-RAD), the reaction rate was measured from the time course changes at absorbance 405 nm. The reaction rate of the control was taken as 100% and the negative logarithm of the concentration capable of suppressing 50% of the reaction rate of the control was taken as the pIC50 value.
# human plasma = test: Determination of anticoagulant activity (aPTT measurement method); settings: negative logarithm of the concentration prolonging the aPTT of the control to two-fold
# Method: Determination of Anticoagulant Activity
# The aPTT measurement method using an automatic blood coagulation time measuring device, Sysmex CA-3000 (TOA Medical Electronics Co., Ltd.) was performed. A solution (5 μl) of the test compound was placed in a sample tube (SU-40, TOA Medical Electronics Co., Ltd.), human plasma (hemolyance coagulation control I, iatron Laboratory, 45 μl) was added and the mixture was incubated at 37° C. for 3 minutes. To the plasma solution were added dataphay•APTT (rabbit brain-derived cephalin, DADE Behring Co., Ltd., 50 μl) and 0.02 M calcium chloride (50 μl), and the time up to the coagulation of plasma was automatically measured. The anticoagulation activity is shown as the negative logarithm of the concentration prolonging the aPTT of the control to two-fold (paPTT2).
# [2] = Evaluation of stability in plasma; format: in vitro ADME; settings: disappearance half-life in human plasma, 37° C., final drug concentration 10 μM, HPLC
# Method: Evaluation of Stability in Plasma
# A […] solution (5 μl) of the test compound was added to human plasma (495 μl) (final drug concentration, 10 μM), and the mixture was incubated at 37° C. Samples (each 50 μl) were taken at 0 minutes, 3 minutes, 10 minutes, and 20 minutes after addition of the drug solution, diluted with distilled water (50 μl), and the reaction was quenched by adding 100% acetonitrile (300 μl) and blending them. After deproteinization by centrifugation at 15000 rpm for 5 minutes, the mixture was concentrated to dryness by a centrifugal evaporator. The sample was dissolved in 120 μl of 0.1% aqueous TFA, the peak area or height of the test compound was calculated by HPLC, and the disappearance half-life was determined.
# FXa = FXa (Homo sapiens, UniProt P00742); test: Determination of activated factor X activity-inhibitory activity (chromogenic substrate S-2222); format: biochemical; settings: negative logarithm of the concentration suppressing 50% of the reaction rate of the control, 0.015 U/ml FXa
# Chain of FXa (P00742 235-488 limits assumed): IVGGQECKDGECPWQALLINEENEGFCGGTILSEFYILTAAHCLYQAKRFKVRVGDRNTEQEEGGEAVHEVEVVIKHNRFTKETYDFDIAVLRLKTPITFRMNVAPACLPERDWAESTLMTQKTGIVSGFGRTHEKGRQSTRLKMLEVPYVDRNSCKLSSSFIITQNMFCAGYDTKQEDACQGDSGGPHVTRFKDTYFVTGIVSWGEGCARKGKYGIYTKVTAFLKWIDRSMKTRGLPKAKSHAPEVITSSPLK
# Chain of FXa (P00742 41-179 partner limits assumed): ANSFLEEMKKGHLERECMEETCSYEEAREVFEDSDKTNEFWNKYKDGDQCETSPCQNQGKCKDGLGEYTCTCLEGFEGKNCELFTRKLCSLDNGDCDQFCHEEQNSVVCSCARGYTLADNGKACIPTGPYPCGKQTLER
# Method: Determination of Activated Factor X Activity-Inhibitory Activity
# as §1, with “0.015” for “0.125”, “FXa” for “activated factor IIa (thrombin)”, “(0.2” for “(0.1”, “S-2222” for “S-2238”
# dog dialysis model = test: Evaluation of dog dialysis model; format: in vivo, dog (Beagles)
# Method: Evaluation of Dog Dialysis Model
# Beagles (♂, 11 kg-15 kg, Nosan Corp., Japan) were anesthetized with pentobarbital (30 mg/kg, Tokyo Chemical Industry Co., Ltd.) by intravenous administration from the cephalic vein of the forefoot. A tracheostomy tube was inserted and artificial breathing was started. Placing needles [14G (serflow placing needle, Termo Corp.), 16G (happycath, Medikit Co., Led), 18G (serflow placing needle, Termo Corp.)] were punctured into the left femoral vein, right femoral artery, and right cephalic vein of the forefoot, respectively, and an outer shunt (Senko Medical Instrument Mfg. CO., Ltd.) filled with saline was set to the femoral vein and artery. For hemodialysis, a hemodialysis device for one person (DBG-01, Nikkiso Co., Ltd.), a hollow fiber dialyzer (FB-50, triacetate (CTA) film, Nipro Corp.) and sodium bicarbonate dialysate (AK-sorita•DL, Shimizu Corp.) were used.
# The experiment was performed under the conditions of blood flow 80 ml/minute, dialysate flow 300 ml/minute, water removal amount 0 ml/minute. During dialysis, pentobarbital (12 mg/kg/hour) was continuously administered from the cephalic vein of the forefoot to maintain anesthesia. The control and test compounds were continuously administered into the arterial blood circuit (B) at 5 ml/hour. […]
Structure (SMILES),pIC50 [1],paPTT2 (human plasma),half-life at 10 μM [2] [min],pIC50 (FXa),"bleeding time (dog dialysis model; Template method, 2 hour after the start of the administration, versus control (FIG. 2))",dialysis time (dog dialysis model; up to arterial circuit pressure 300 mmHg or 4 hours after the start of the dialysis (FIG. 1)) [h]
"N=C(N)c1ccc(O)c(OCCOC(=O)c2ccc(C(=N)N3CCCC3)cc2)c1 [Ex. 6, 2-{5-amidino-2-hydroxyphenoxy}ethyl 4-[imino(pyrrolidin-1-yl)methyl]benzoate ditrifluoroacetate]",4.10,6,1.6,8.50,–,–
"CC(=N)N1CCC(Oc2ccc(C(=O)OCCOc3cccc(C(=N)N)c3)cc2)CC1 [Ex. 16, 2-{3-amidinophenoxy}ethyl 4-[(1-(1-iminoethyl)piperidin-4-yl)oxy]benzoate ditrifluoroacetate]",< 4.00,5.4,1.7,7.20,–,–
"COc1ccc(C(=N)N)cc1OCCOC(=O)c1ccc(C(=N)N2CCCC2)cc1 [Ex. 18, 2-{5-amidino-2-methoxyphenoxy}ethyl 4-[imino(pyrrolidin-1-yl)methyl]benzoate ditrifluoroacetate]",< 4.00,5.2,1.1,6.60,–,–
"N=C(N)c1cccc(OCCOC(=O)c2ccc(C(=N)N3CCCC3)nc2)c1 [Ex. 37, 2-(3-amidinophenoxy)ethyl 6-[imino(pyrrolidin-1-yl)methyl]nicotinate tritrifluoroacetate]",< 4.00,5.2,–,6.70,–,–
"N=C(N)c1ccc(OCCO)c(OCCOC(=O)c2ccc(C(=N)N3CCCC3)cc2)c1 [Ex. 13, 2-[5-amidino-2-(2-hydroxyethoxy)phenoxy]ethyl 4-[imino(pyrrolidin-1-yl)methyl]benzoate ditrifluoroacetate]",4.20,6.4,2.7,7.80,–,–
"CC(=O)Oc1ccc(C(=N)N)cc1OCCOC(=O)c1ccc(C(=N)N2CCCC2)cc1 [Ex. 28, 2-{2-(acetoxy)-5-amidinophenoxy}ethyl 4-[imino(pyrrolidin-1-yl)methyl]benzoate ditrifluoroacetate]",5.80,–,3.5,8.40,–,–
"CC(C)COc1ccc(C(=N)N)cc1OCCOC(=O)c1ccc(C(=N)N2CCCC2)cc1 [Ex. 24, 2-{5-amidino-2-isobutoxyphenoxy}ethyl 4-[imino(pyrrolidin-1-yl)methyl]benzoate ditrifluoroacetate]",4.90,–,0.7,7.40,–,–
"N=C(N)c1cccc(OCCOC(=O)c2ccc(OC3CCN(C(=N)N)CC3)cc2)c1 [Ex. 17, 2-{3-amidinophenoxy}ethyl 4-({1-amidinopiperidin-4-yl}oxy)benzoate ditrifluoroacetate]",< 4.00,–,5.6,7.20,–,–
"N#CCOc1ccc(C(=N)N)cc1OCCOC(=O)c1ccc(C(=N)N2CCCC2)cc1 [Ex. 20, 2-[5-amidino-2-(cyanomethoxy)phenoxy]ethyl 4-[imino(pyrrolidin-1-yl)methyl]benzoate ditrifluoroacetate]",5.20,–,2.1,7.90,of the same level as the control,4
